Structures are written as SMILES.

From patent US11319315B2, “Cyclohexyl acid triazole azoles as LPA antagonists” (BRISTOL-MYERS SQUIBB COMPANY, priority 2017, dated 2022) come the findings set out here.

The target in the assay is T1, human LPA1 (Homo sapiens, UniProt Q92633).
T1 construct: expressed in transfected cells; host or cells: Chinese hamster ovary (CHO) cells
T1 sequence (Q92633 whole entry): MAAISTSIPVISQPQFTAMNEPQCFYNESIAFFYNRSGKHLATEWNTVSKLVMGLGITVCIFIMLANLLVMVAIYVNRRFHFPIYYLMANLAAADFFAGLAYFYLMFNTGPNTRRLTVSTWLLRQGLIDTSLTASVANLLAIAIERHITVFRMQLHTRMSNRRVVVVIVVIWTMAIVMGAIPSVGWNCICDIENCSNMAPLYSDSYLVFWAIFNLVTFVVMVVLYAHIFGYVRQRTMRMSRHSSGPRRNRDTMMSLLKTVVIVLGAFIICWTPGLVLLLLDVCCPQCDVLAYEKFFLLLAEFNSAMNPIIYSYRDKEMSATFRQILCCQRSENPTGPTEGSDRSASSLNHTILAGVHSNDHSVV
The assay can be described thus: LPA1 functional antagonist assay (LPA-induced calcium flux in CHO cells overexpressing human LPA1). The assay is classed as cell-based. The settings on record: inhibition of calcium flux induced by 10 nM LPA, CHO cells overexpressing human LPA1; read-out: hLPA1 IC50. The method in brief: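 CHO cells overexpressing human LPA1, dye-loaded 30 min at 37 °C, then given compound (0.08 nM–5 μM final, 0.5% DMSO) in HBSS/20 mM HEPES/0.1% fatty-acid-free BSA for 20 min at room temperature before 10 nM LPA. IC50 as 50% inhibition of LPA-evoked calcium flux, 4-parameter logistic fit.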
Regarding `Cc1nc(-c2nnn(C)c2Cc2noc(CCC(C)C)n2)ccc1O[C@H]1CCC[C@H](C(=O)O)C1` [Example 229, (1S,3S)-3-((6-(5-((5-isopentyl-1,2,4-oxadiazol-3-yl)methyl)-1-methyl-1H-1,2,3-triazol-4-yl)-2-methylpyridin-3-yl)oxy)cyclohexane-1-carboxylic acid], the IC50 is 11 nM.
For `Cc1nc(-c2nnn(C)c2Cc2noc(C(C)C)n2)ccc1O[C@H]1CCC[C@H](C(=O)O)C1` [Example 230, (1S,3S)-3-((6-(5-((5-isopropyl-1,2,4-oxadiazol-3-yl)methyl)-1-methyl-1H-1,2,3-triazol-4-yl)-2-methylpyridin-3-yl)oxy)cyclohexane-1-carboxylic acid] the value was 95 nM; for `Cc1nc(-c2nnn(C)c2Cc2noc(CCC3CC3)n2)ccc1O[C@H]1CCC[C@H](C(=O)O)C1` [Example 231, (1S,3S)-3-((6-(5-((5-(2-cyclopropylethyl)-1,2,4-oxadiazol-3-yl)methyl)-1-methyl-1H-1,2,3-triazol-4-yl)-2-methylpyridin-3-yl)oxy)cyclohexane-1-carboxylic acid], 15 nM.
For `Cc1nc(-c2nnn(C)c2Cc2noc(CCC3CCC3)n2)ccc1O[C@H]1CCC[C@H](C(=O)O)C1` [Example 232, (1S,3S)-3-((6-(5-((5-(2-cyclobutylethyl)-1,2,4-oxadiazol-3-yl)methyl)-1-methyl-1H-1,2,3-triazol-4-yl)-2-methylpyridin-3-yl)oxy)cyclohexane-1-carboxylic acid] the value was 8 nM.
For `CCCCc1nc(Cc2c(-c3ccc(O[C@H]4CCC[C@H](C(=O)O)C4)c(C)n3)nnn2C)no1` [Example 233, (1S,3S)-3-((6-(5-((5-butyl-1,2,4-oxadiazol-3-yl)methyl)-1-methyl-1H-1,2,3-triazol-4-yl)-2-methylpyridin-3-yl)oxy)cyclohexane-1-carboxylic acid] the value was 8 nM.
For `Cc1nc(-c2nnn(C)c2Cc2noc(CC(C)C)n2)ccc1O[C@H]1CCC[C@H](C(=O)O)C1` [Example 234, (1S,3S)-3-((6-(5-((5-isobutyl-1,2,4-oxadiazol-3-yl)methyl)-1-methyl-1H-1,2,3-triazol-4-yl)-2-methylpyridin-3-yl)oxy)cyclohexane-1-carboxylic acid], the IC50 stood at 52 nM.
The same measure for `CCCc1nc(Cc2c(-c3ccc(O[C@H]4CCC[C@H](C(=O)O)C4)c(C)n3)nnn2C)no1` [Example 235, (1S,3S)-3-((2-methyl-6-(1-methyl-5-((5-propyl-1,2,4-oxadiazol-3-yl)methyl)-1H-1,2,3-triazol-4-yl)pyridin-3-yl)oxy)cyclohexane-1-carboxylic acid]: 59 nM; for `Cc1nc(-c2nnn(C)c2Cc2noc(CC3CCC3)n2)ccc1O[C@H]1CCC[C@H](C(=O)O)C1` [Example 236, (1S,3S)-3-((6-(5-((5-(cyclobutyl-methyl)-1,2,4-oxadiazol-3-yl)methyl)-1-methyl-1H-1,2,3-triazol-4-yl)-2-methylpyridin-3-yl)oxy)cyclohexane-1-carboxylic acid]: 28 nM; for `Cc1nc(-c2nnn(C)c2Cc2noc(Cc3ccccc3)n2)ccc1O[C@H]1CCC[C@H](C(=O)O)C1` [Example 237, (1S,3S)-3-((6-(5-((5-benzyl-1,2,4-oxadiazol-3-yl)methyl)-1-methyl-1H-1,2,3-triazol-4-yl)-2-methylpyridin-3-yl)oxy)cyclohexane-1-carboxylic acid]: 8 nM.
For `Cc1nc(-c2nnn(C)c2Cc2noc(-c3ccccc3)n2)ccc1O[C@H]1CCC[C@H](C(=O)O)C1` [Example 238, (1S,3S)-3-((2-methyl-6-(1-methyl-5-((5-phenyl-1,2,4-oxadiazol-3-yl)methyl)-1H-1,2,3-triazol-4-yl)pyridin-3-yl)oxy)cyclohexane-1-carboxylic acid], the IC50 turned out to be 161 nM.
For `Cc1nc(-c2nnn(C)c2Cc2noc(CCC(F)(F)F)n2)ccc1O[C@H]1CCC[C@H](C(=O)O)C1` [Example 240] the value was 61 nM.
The same measure for `Cc1nc(-c2nnn(C)c2Cc2nc(CCC(C)C)no2)ccc1O[C@H]1CCC[C@H](C(=O)O)C1` [Example 241, (1 S,3 S)-3-((6-(5-((3-isopentyl-1,2,4-oxadiazol-5-yl)methyl)-1-methyl-1H-1,2,3-triazol-4-yl)-2-methylpyridin-3-yl)oxy)cyclohexane-1-carboxylic acid]: 33 nM; for `COc1cccc(Cc2noc(Cc3c(-c4ccc(O[C@H]5CCC[C@H](C(=O)O)C5)c(C)n4)nnn3C)n2)c1` [Example 242, (1S,3S)-3-((6-(5-((3-(3-methoxy-benzyl)-1,2,4-oxadiazol-5-yl)methyl)-1-methyl-1H-1,2,3-triazol-4-yl)-2-methylpyridin-3-yl)oxy)cyclohexane-1-carboxylic acid]: 2020 nM.
Turning to `Cc1nc(-c2nnn(C)c2Cc2nc(CC(C)C)no2)ccc1O[C@H]1CCC[C@H](C(=O)O)C1` [Example 243, (1S,3S)-3-((6-(5-((3-isobutyl-1,2,4-oxadiazol-5-yl)methyl)-1-methyl-1H-1,2,3-triazol-4-yl)-2-methylpyridin-3-yl)oxy)cyclohexane-1-carboxylic acid], the IC50 is 58 nM.
In the case of `Cc1nc(-c2nnn(C)c2Cc2nc(Cc3ccccc3)no2)ccc1O[C@H]1CCC[C@H](C(=O)O)C1` [Example 244, (1S,3S)-3-((6-(5-((3-benzyl-1,2,4-oxadiazol-5-yl)methyl)-1-methyl-1H-1,2,3-triazol-4-yl)-2-methylpyridin-3-yl)oxy)cyclohexane-1-carboxylic acid], the IC50 is 40 nM.
For `Cc1nc(-c2nnn(C)c2Cc2nc(-c3ccccc3)no2)ccc1O[C@H]1CCC[C@H](C(=O)O)C1` [Example 245, (1S,3S)-3-((2-methyl-6-(1-methyl-5-((3-phenyl-1,2,4-oxadiazol-5-yl)methyl)-1H-1,2,3-triazol-4-yl)pyridin-3-yl)oxy)cyclohexane-1-carboxylic acid] the value was 79 nM; for `Cc1nc(-c2nnn(C)c2Cc2nc(CC3CC3)no2)ccc1O[C@H]1CCC[C@H](C(=O)O)C1` [Example 246, (1S,3S)-3-((6-(5-((3-(cyclopropyl-methyl)-1,2,4-oxadiazol-5-yl)methyl)-1-methyl-1H-1,2,3-triazol-4-yl)-2-methylpyridin-3-yl)oxy)cyclohexane-1-carboxylic acid], 40 nM; for `CCCc1noc(Cc2c(-c3ccc(O[C@H]4CCC[C@H](C(=O)O)C4)c(C)n3)nnn2C)n1` [Example 247, (1S,3S)-3-((2-methyl-6-(1-methyl-5-((3-propyl-1,2,4-oxadiazol-5-yl)methyl)-1H-1,2,3-triazol-4-yl)pyridin-3-yl)oxy)cyclohexane-1-carboxylic acid], 82 nM.
For `Cc1nc(-c2nnn(C)c2Cc2nc(COC(C)C)no2)ccc1O[C@H]1CCC[C@H](C(=O)O)C1` [Example 248, (1S,3S)-3-((6-(5-((3-(isopropoxy-methyl)-1,2,4-oxadiazol-5-yl)methyl)-1-methyl-1H-1,2,3-triazol-4-yl)-2-methylpyridin-3-yl)oxy)cyclohexane-1-carboxylic acid] the value was 61 nM.
For `CCOCc1noc(Cc2c(-c3ccc(O[C@H]4CCC[C@H](C(=O)O)C4)c(C)n3)nnn2C)n1` [Example 249, (1S,3S)-3-((6-(5-((3-(ethoxymethyl)-1,2,4-oxadiazol-5-yl)methyl)-1-methyl-1H-1,2,3-triazol-4-yl)-2-methylpyridin-3-yl)oxy)cyclohexane-1-carboxylic acid] the value was 76 nM; for `Cn1nnc(-c2ccc(O[C@H]3CCC[C@H](C(=O)O)C3)cn2)c1Cn1nnc(CC2CC2)n1` [Example 250, (1 S,3 S)-3-((6-(5-((5-(cyclopropylmethyl)-2H-tetrazol-2-yl)methyl)-1-methyl-1H-1,2,3-triazol-4-yl)pyridin-3-yl)oxy)cyclohexane-1-carboxylic acid], 44 nM; for `Cn1nnc(-c2ccc(O[C@H]3CCC[C@H](C(=O)O)C3)cn2)c1Cn1nnnc1CC1CC1` [Example 251, (1S,3S)-3-((6-(5-((5-(cyclopropylmethyl)-1H-tetrazol-1-yl)methyl)-1-methyl-1H-1,2,3-triazol-4-yl)pyridin-3-yl)oxy)cyclohexane-1-carboxylic acid], 125 nM.
`CCCc1nnn(Cc2c(-c3ccc(O[C@H]4CCC[C@H](C(=O)O)C4)cn3)nnn2C)n1` [Example 252, (1S,3S)-3-((6-(1-methyl-5-((5-propyl-2H-tetrazol-2-yl)methyl)-1H-1,2,3-triazol-4-yl)pyridin-3-yl)oxy)cyclohexane-1-carboxylic acid]: the IC50 was 531 nM.
Regarding `CCCc1nnnn1Cc1c(-c2ccc(O[C@H]3CCC[C@H](C(=O)O)C3)cn2)nnn1C` [Example 253, (1S,3S)-3-((6-(1-methyl-5-((5-propyl-1H-tetrazol-1-yl)methyl)-1H-1,2,3-triazol-4-yl)pyridin-3-yl)oxy)cyclohexane-1-carboxylic acid], the IC50 is 264 nM.
Consider `CC(C)Cc1nnn(Cc2c(-c3ccc(O[C@H]4CCC[C@H](C(=O)O)C4)cn3)nnn2C)n1` [Example 254, (1S,3S)-3-((6-(5-((5-isobutyl-2H-tetrazol-2-yl)methyl)-1-methyl-1H-1,2,3-triazol-4-yl)pyridin-3-yl)oxy)cyclohexane-1-carboxylic acid], for which the IC50 stood at 288 nM.
The same measure for `CC(C)Cc1nnnn1Cc1c(-c2ccc(O[C@H]3CCC[C@H](C(=O)O)C3)cn2)nnn1C` [Example 255, (1S,3S)-3-((6-(5-((5-isobutyl-1H-tetrazol-1-yl)methyl)-1-methyl-1H-1,2,3-triazol-4-yl)pyridin-3-yl)oxy)cyclohexane-1-carboxylic acid]: 237 nM.
With `CCCCc1nnnn1Cc1c(-c2ccc(O[C@H]3CCC[C@H](C(=O)O)C3)cn2)nnn1C` [Example 256, (1S,3S)-3-((6-(5-((5-butyl-1H-tetrazol-1-yl)methyl)-1-methyl-1H-1,2,3-triazol-4-yl)pyridin-3-yl)oxy)cyclohexane-1-carboxylic acid], the IC50 amounted to 111 nM.
